Source: PubChem BioAssay (NCI)
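Interpolation was linear, between the two tested concentrations surrounding the appropriate level; five concentrations were tested over 48 hours in 96-well plates. At the TGI there is no net growth.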

Legend:
Experiment in all cases: DTP human tumour cell line panel, 48 h
[1] = test system: UACC-62 melanoma
[2] = test system: SK-OV-3 ovarian
[3] = test system: SNB-19 CNS
[4] = test system: K-562 leukemia
[5] = test system: IGROV1 ovarian
[6] = test system: NCI-H23 lung
[7] = test system: UACC-257 melanoma
[8] = test system: OVCAR-5 ovarian
[9] = test system: SK-MEL-2 melanoma
[10] = test system: HCT-116 colon
[11] = test system: M14 melanoma
[12] = test system: COLO 205 colon
[13] = test system: CAKI-1 renal
[14] = test system: MCF7 breast
[15] = test system: PC-3 prostate
[16] = test system: NCI-H460 lung
[17] = test system: KM12 colon
[18] = test system: LOX IMVI melanoma
[19] = test system: MOLT-4 leukemia
[20] = test system: SF-295 CNS
[21] = test system: SNB-75 CNS
[22] = test system: T-47D breast
[23] = test system: RXF 393 renal
[24] = test system: HOP-92 NSCLC
[25] = test system: A549 NSCLC
[26] = test system: MDA-MB-231 breast
[27] = test system: CCRF-CEM leukemia
[28] = test system: BT-549 breast
[29] = test system: HCC-2998 colon
[30] = test system: NCI-H522 lung
[31] = test system: A498 renal
[32] = test system: U251 CNS
[33] = test system: HS 578T breast
[34] = test system: OVCAR-4 ovarian
[35] = test system: HL-60(TB) leukemia
[36] = test system: SF-539 CNS
[37] = test system: UO-31 renal
[38] = test system: SF-268 CNS
[39] = test system: SR leukemia
[40] = test system: NCI/ADR-RES ovarian
[41] = test system: HT29 colon
[42] = test system: MALME-3M melanoma
[43] = test system: ACHN renal
[44] = test system: 786-0 renal
[45] = test system: RPMI-8226 leukemia
[46] = test system: HCT-15 colon
[47] = test system: SN12C renal
[48] = test system: OVCAR-8 ovarian
[49] = test system: HOP-62 NSCLC
[50] = test system: SW-620 colon
[51] = test system: MDA-N
[52] = test system: NCI-H226 lung
[53] = test system: MDA-MB-435
[54] = test system: SK-MEL-28 melanoma
[55] = test system: TK-10 renal
[56] = test system: EKVX NSCLC
[57] = test system: SK-MEL-5 melanoma
[58] = test system: DU-145 prostate
[59] = test system: OVCAR-3 ovarian

`CC1=COC2=C(C)C(=O)C(=O)c3c(C)ccc1c32` was tested, and the TGI [1] was 11.9 µM, the TGI [2] was > 93.2 µM and the TGI [3] was > 40.5 µM. The TGI [4] was > 100 µM, the TGI [5] was 21.6 µM and the TGI [6] was 14.3 µM. The TGI [7] was 20.6 µM, the TGI [8] was 34.8 µM and the TGI [9] was > 40.1 µM. For the same molecule, the TGI [10] was 20.6 µM, the TGI [11] was 13.8 µM and the TGI [12] was 8.91 µM. The TGI [13] was > 63.4 µM, the TGI [14] was 8.92 µM and the TGI [15] was 22.5 µM. For the same molecule, the TGI [16] was 15.4 µM, the TGI [17] was 26.4 µM and the TGI [18] was 16 µM. The TGI [19] was 12 µM, the TGI [20] was 18.8 µM and the TGI [21] was 42.6 µM. It also gave a TGI [22] of 27.7 µM, a TGI [23] of 21.5 µM and a TGI [24] of 39.9 µM. For the same molecule, the TGI [25] was 15.2 µM, the TGI [26] was 23.6 µM and the TGI [27] was > 76.1 µM. For the same molecule, the TGI [28] was 38.3 µM, the TGI [29] was 19.6 µM and the TGI [30] was 8.27 µM. For the same molecule, the TGI [31] was 41.8 µM, the TGI [32] was > 44.7 µM and the TGI [33] was > 95.7 µM. The TGI [34] was 13.5 µM, the TGI [35] was 5.38 µM and the TGI [36] was 10.7 µM. For the same molecule, the TGI [37] was 40.6 µM, the TGI [38] was 36.6 µM and the TGI [39] was > 42.6 µM. For the same molecule, the TGI [40] was 7.87 µM, the TGI [41] was 12.8 µM and the TGI [42] was 16 µM. The TGI [43] was 29.5 µM, the TGI [44] was 19.6 µM and the TGI [45] was 97.2 µM. The TGI [46] was 11.5 µM, the TGI [47] was 14.1 µM and the TGI [48] was 12.4 µM. For the same molecule, the TGI [49] was > 36.9 µM, the TGI [50] was 28.9 µM and the TGI [51] was 3.26 µM. For the same molecule, the TGI [52] was 68.9 µM, the TGI [53] was 3.86 µM and the TGI [54] was > 100 µM. The TGI [55] was > 92.6 µM, the TGI [56] was 24.7 µM and the TGI [57] was 3.26 µM. It also gave a TGI [58] of 20.3 µM.

With `CCCCNc1nc(SC)nc2nc[nH]c12` the TGI [1] was > 100 µM, the TGI [2] was 41.9 µM and the TGI [3] was > 100 µM. For the same molecule, the TGI [4] was > 100 µM, the TGI [5] was > 100 µM and the TGI [6] was > 100 µM. The TGI [7] was > 100 µM, the TGI [8] was > 100 µM and the TGI [9] was > 100 µM. For the same molecule, the TGI [10] was > 100 µM, the TGI [11] was > 100 µM and the TGI [12] was > 100 µM. For the same molecule, the TGI [13] was > 100 µM, the TGI [14] was > 100 µM and the TGI [15] was > 100 µM. For the same molecule, the TGI [16] was > 100 µM, the TGI [17] was > 100 µM and the TGI [18] was > 100 µM. The TGI [19] was > 100 µM, the TGI [20] was > 100 µM and the TGI [21] was > 100 µM. For the same molecule, the TGI [22] was > 100 µM, the TGI [23] was > 100 µM and the TGI [24] was > 100 µM. For the same molecule, the TGI [25] was > 100 µM, the TGI [26] was > 100 µM and the TGI [27] was > 100 µM. For the same molecule, the TGI [28] was > 100 µM, the TGI [29] was > 100 µM and the TGI [30] was > 100 µM. The TGI [31] was > 89.2 µM, the TGI [32] was > 100 µM and the TGI [33] was 21.9 µM. The TGI [34] was > 100 µM, the TGI [35] was > 100 µM and the TGI [36] was > 100 µM. The TGI [37] was > 100 µM, the TGI [59] was > 100 µM and the TGI [38] was > 100 µM. The TGI [39] was > 100 µM, the TGI [40] was > 100 µM and the TGI [41] was > 100 µM. The TGI [42] was > 100 µM, the TGI [43] was > 100 µM and the TGI [44] was > 100 µM. The TGI [45] was > 100 µM, the TGI [46] was > 100 µM and the TGI [47] was > 100 µM. The TGI [48] was > 100 µM, the TGI [49] was > 100 µM and the TGI [50] was > 100 µM. For the same molecule, the TGI [51] was > 100 µM, the TGI [52] was > 100 µM and the TGI [53] was > 100 µM. The TGI [54] was > 100 µM, the TGI [55] was > 100 µM and the TGI [56] was > 100 µM. For the same molecule, the TGI [57] was > 100 µM and the TGI [58] was > 100 µM.

For `OC[C@H]1CC(c2nn[nH]n2)[C@H](O)[C@@H]1O` (stereo partly specified), the TGI [2] was > 100 µM, the TGI [3] was > 100 µM and the TGI [4] was > 100 µM. The TGI [5] was > 100 µM, the TGI [6] was > 100 µM and the TGI [8] was > 100 µM. The TGI [10] was > 100 µM, the TGI [11] was > 100 µM and the TGI [12] was > 100 µM. For the same molecule, the TGI [14] was > 100 µM, the TGI [15] was > 100 µM and the TGI [16] was > 100 µM. For the same molecule, the TGI [17] was > 100 µM, the TGI [18] was > 100 µM and the TGI [19] was > 100 µM. The TGI [20] was > 100 µM, the TGI [21] was > 100 µM and the TGI [22] was > 100 µM. The TGI [23] was > 100 µM, the TGI [24] was > 100 µM and the TGI [25] was > 100 µM. The TGI [26] was > 100 µM, the TGI [27] was > 100 µM and the TGI [28] was > 100 µM. The TGI [29] was > 100 µM, the TGI [30] was > 100 µM and the TGI [31] was > 100 µM. For the same molecule, the TGI [32] was > 100 µM, the TGI [33] was > 100 µM and the TGI [34] was > 100 µM. The TGI [35] was > 100 µM, the TGI [36] was > 100 µM and the TGI [37] was > 100 µM. For the same molecule, the TGI [59] was > 100 µM, the TGI [38] was > 100 µM and the TGI [39] was > 100 µM. For the same molecule, the TGI [40] was > 100 µM, the TGI [41] was > 100 µM and the TGI [42] was > 100 µM. For the same molecule, the TGI [43] was > 100 µM, the TGI [44] was > 100 µM and the TGI [45] was > 100 µM. The TGI [46] was > 100 µM, the TGI [47] was > 100 µM and the TGI [48] was > 100 µM. The TGI [49] was > 100 µM, the TGI [50] was > 100 µM and the TGI [51] was > 100 µM. For the same molecule, the TGI [52] was > 100 µM, the TGI [53] was > 100 µM and the TGI [54] was > 100 µM. The TGI [55] was > 100 µM, the TGI [57] was > 100 µM and the TGI [58] was > 100 µM.
